According to patent US9206161B2, “Bridged bicyclic heteroaryl substituted triazoles useful as Axl inhibitors” (Rigel Pharmaceuticals, Inc., priority 2008, dated 2015):
pIC50: −log10 of the molar value.

Biological target: T1, Axl (Homo sapiens, UniProt P30530)
T1 construct: endogenous in cells; host or cells: HeLa cells
T1 sequence (P30530 26-894): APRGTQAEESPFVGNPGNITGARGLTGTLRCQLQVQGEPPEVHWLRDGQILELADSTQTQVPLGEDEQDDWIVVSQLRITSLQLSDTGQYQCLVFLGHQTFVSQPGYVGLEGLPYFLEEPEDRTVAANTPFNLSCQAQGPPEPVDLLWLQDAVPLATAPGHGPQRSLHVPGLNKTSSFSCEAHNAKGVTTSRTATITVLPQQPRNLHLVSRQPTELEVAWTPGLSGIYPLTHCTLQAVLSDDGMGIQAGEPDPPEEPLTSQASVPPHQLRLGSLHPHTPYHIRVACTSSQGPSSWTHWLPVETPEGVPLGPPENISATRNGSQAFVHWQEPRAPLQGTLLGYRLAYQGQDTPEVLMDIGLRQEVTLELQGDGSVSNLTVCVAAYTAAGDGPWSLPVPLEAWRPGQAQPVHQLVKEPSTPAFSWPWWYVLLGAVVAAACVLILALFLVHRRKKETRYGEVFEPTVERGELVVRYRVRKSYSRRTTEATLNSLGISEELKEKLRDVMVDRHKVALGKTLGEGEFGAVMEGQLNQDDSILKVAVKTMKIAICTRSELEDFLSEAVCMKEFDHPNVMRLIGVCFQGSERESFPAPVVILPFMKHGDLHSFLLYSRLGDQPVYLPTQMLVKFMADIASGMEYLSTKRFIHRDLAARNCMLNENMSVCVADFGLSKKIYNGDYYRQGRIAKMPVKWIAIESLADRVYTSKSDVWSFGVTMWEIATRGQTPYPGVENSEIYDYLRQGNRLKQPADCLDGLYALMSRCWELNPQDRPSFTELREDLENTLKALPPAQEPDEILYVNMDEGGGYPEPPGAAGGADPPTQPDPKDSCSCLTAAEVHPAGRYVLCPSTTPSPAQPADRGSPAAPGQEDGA
Experiment: Phospho-Akt in-cell Western assay
Type: cell-based
Details: Hela cells, Axl antibody cross-linking stimulation, phospho-Akt readout
Protocol: Phospho-Akt in-Cell Western Assay
The compounds of the invention were tested in the following assay for their ability to inhibit Axl activity.
• Cell culture plate: 96 well assay plate (Corning 3610), white, clear bottom, tissue-culture treated. • Cells: Hela cells. • Starvation medium: For Axl stimulation: 0.5% FCS (fetal calf serum) in DMEM, plus Axl/Fc (extracellular domain of AXL fused to immunoglobulin Fc region) (R&D, 154-AL) 500 ng/mL. • For EGF (epidermal growth factor) stimulation: 0.5% FCS in DMEM (Dulbecco's modified Eagles medium). • Poly-L-Lysine 0.01% solution (the working solution): 10 μg/ml, dilute In PBS (phosphate buffered saline). • Axl antibody cross-linking: • 1st: Mouse anti-Axl (R&D, MAB154). • 2nd: Biotin-SP-conjugated AffiniPure goat anti-mouse IgG (H+L) (Jackson ImmunoResearch #115-065-003). • Fixing buffer: 4% formaldehyde in PBS. • Wash buffer: 0.1% TritonX-100 in PBS. • Quenching buffer: 3% H2O2, 0.1% Azide in wash buffer, Azide and hydrogen peroxide (H2O2) are added fresh. • Blocking buffer: 5% BSA in TBST (tris buffered saline plus 0.1% Tween 20). • Primary antibody: Rabbit anti-human Phospho-Akt antibody (Cell Signaling 9271): 1×250 diluted in blocking buffer. • Secondary antibody: HRP (horse radish peroxidase)-conjugated Goat anti-Rabbit secondary, stock solution: Jackson ImmunoResearch (Goat anti-Rabbit HRP, #111-035-144) 1:1 diluted in glycerol, store at −20° C. The working solution: 1×2000 dilution of stock in blocking buffer. • Chemiluminescent working solution (Pierce, 37030): SuperSignal ELISA (enzyme linked immunosorbant assay) Pico Chemiluminescent substrate. • Crystal Violet solution: Stock: 2.5% Crystal violet in methanol, filtered and kept at ambient temperature. The working solution: dilute the stock 1:20 with PBS immediately before use. • 10% SDS: working solution: 5% SDS (sodium dodecylsulfate), diluted in PBS Methods: Day 1:
A 96 well TC (tissue culture treated) plate was coated with 10 μg/mL poly-L-Lysine at 37° C. for 30 min, washed twice with PBS, and air-dried for 5 minutes before cells were added. Hela cells were seeded at 10,000 cells/well and the cells were starved in 100 μL starvation medium containing Axl/Fc for 24 hrs.
The cells were pre-treated with test compounds by adding 100 μL of 2× test compound to the starvation medium on the cells. The cells were incubated at 37° C. for 1 hr before stimulation.
The cells were stimulated by Axl-antibody cross-linking as follows: A 5×1st/2nd Axl antibody mixture was made (37.5 μg/mL 1st/100 μg/mL 2nd) in starvation medium and nutated at 4° C. with thorough mixing for 1-2 hours for clustering. The resulting mix was warmed to 37° C. 50 μL of 5× Axl 1st/2nd of antibody cluster was added to the cells and the cells were incubated at 37° C. for 5 min.
After 5 minutes stimulation, the plate was flicked to remove medium and the plate was tapped onto paper towels. Formaldehyde (4.0% in PBS, 100 μL) was added to fix the cells and the cells were incubated at ambient temperature for 20 min without shaking.
The cells were washed with a plate washer buffer to remove the formaldehyde solution. The plate was flicked to removed excess wash buffer and tapped onto paper towels. Quenching buffer (100 μL) was added to each well and the cells were incubated at ambient temperature for 20 minutes without shaking.
The cells were washed with a plate washer buffer to remove the quenching buffer. Blocking buffer (100 μL) was added and the cells were incubated at ambient temperature for at least an hour with gentle shaking.
The cells were washed with a plate washer buffer and diluted primary antibody (50 μL) was added to each well (blocking buffer was added to the negative control wells instead). The plates were incubated overnight at 4° C. with gentle shaking.
The wash buffer was removed, diluted secondary antibody (100 μL) was added, and the cells were incubated at ambient temperature for 1 hour with gentle shaking. […]

`CCCN(CCC)[C@H]1CCc2ccc(Nc3nc(N)n(-c4cc(-c5ccccc5)c5c(n4)C4CCN5CC4)n3)cc2CC1` [Compound 39, (7S)-1-(1,4-ethano-8-phenyl-1,2,3,4-tetrahydro-1,5-naphthyridin-6-yl)-N^3-(7-(dipropylamino)-6,7,8,9-tetrahydro-5H-benzo[7]annulene-2-yl)-1H-1,2,4-triazole-3,5-diamine] was tested, and the pIC50 (Table 4, formula (III)) was greater than 6.00.

`Nc1nc(Nc2ccc(N3CCC(N4CCCC4)CC3)c(F)c2)nn1-c1nnc(-c2ccccc2Cl)c2c1C1CCC2CC1` [Compound 15, 1-(4-(2-chlorophenyl)-5,8-ethano-5,6,7,8-tetrahydrophthalazine-1-yl)-N^3-(4-(4-(pyrrolidin-1-yl)piperidinyl)-3-fluorophenyl)-1H-1,2,4-triazole-3,5-diamine] showed a pIC50 (Table 5, formula (IVa)) greater than 6.00.

With `CCOc1ccc(C)cc1-c1nnc(-n2nc(Nc3ccc4c(c3)CCC(N3CCCC3)CC4)nc2N)c2c1C1CCC2CC1` (centres unmarked) [Compound 32, 1-(4-(2-ethoxy-5-methylphenyl)-5,8-ethano-5,6,7,8-tetrahydrophthalazine-1-yl)-N^3-(7-(pyrrolidin-1-yl)-6,7,8,9-tetrahydro-5H-benzo[7]annulene-2-yl)-1H-1,2,4-triazole-3,5-diamine] the pIC50 (Table 8, formula (VI)) was 5.00 to 6.00.

`CC(C)CN[C@H]1CCc2ccc(Nc3nc(N)n(-c4cc(-c5ccccc5)c5c(n4)C4CCN5CC4)n3)cc2CC1` [Compound 40, (7S)-1-(1,4-ethano-8-phenyl-1,2,3,4-tetrahydro-1,5-naphthyridin-6-yl)-N^3-(7-(isobutylamino)-6,7,8,9-tetrahydro-5H-benzo[7]annulene-2-yl)-1H-1,2,4-triazole-3,5-diamine] gave a pIC50 (Table 4, formula (III)) greater than 6.00.

Molecule `CN(C)CC(=O)NC1CCc2ncc(Nc3nc(N)n(-c4cc(-c5ccccc5)c5c(n4)C4CCN5CC4)n3)cc2C1` (centres unmarked) [Compound 3, 1-(1,4-ethano-8-phenyl-1,2,3,4-tetrahydro-1,5-naphthyridin-6-yl)-N^3-(6-[(((dimethyl)amino)methyl)carbonylamino]-5,6,7,8-tetrahydroquinoline-3-yl)-1H-1,2,4-triazole-3,5-diamine] has a pIC50 (Table 1, formula (Ia)) greater than 6.00.

Molecule `CN(C)[C@H]1CCc2ccc(Nc3nc(N)n(-c4cc(-c5ccccc5)c5c(n4)C4CCN5CC4)n3)cc2CC1` [Compound 36, (7S)-1-(1,4-ethano-8-phenyl-1,2,3,4-tetrahydro-1,5-naphthyridin-6-yl)-N^3-(7-(dimethylamino)-6,7,8,9-tetrahydro-5H-benzo[7]annulene-2-yl)-1H-1,2,4-triazole-3,5-diamine] has a pIC50 (Table 4, formula (III)) of less than 4.70.

In the case of `Nc1nc(Nc2ccc(N3CCC(N4CCCC4)CC3)c(F)c2)nn1-c1cc(-c2ccccc2)c2c(n1)C1CCN(CC1)C2` [Compound 7, 1-(6,9-ethano-4-phenyl-6,7,8,9-tetrahydro-5H-pyrido[3,2-c]azepin-2-yl)-N^3-(4-(4-(pyrrolidin-1-yl)piperidinyl)-3-fluorophenyl)-1H-1,2,4-triazole-3,5-diamine], the pIC50 (Table 3, formula (II)) was greater than 6.00.

Work on `Nc1nc(Nc2ccc3c(c2)CCC(N2CCCC2)CC3)nn1-c1nnc(-c2ccccc2)c2c1C1CCC2CC1` (centres unmarked) [Compound 28, 1-(4-phenyl-5,8-ethano-5,6,7,8-tetrahydrophthalazine-1-yl)-N^3-(7-(pyrrolidin-1-yl)-6,7,8,9-tetrahydro-5H-benzo[7]annulene-2-yl)-1H-1,2,4-triazole-3,5-diamine] yielded a pIC50 (Table 8, formula (VI)) greater than 6.00.

Work on `Nc1nc(Nc2ccc(N3CCC(N4CCCC4)CC3)c(F)c2)nn1-c1nc(-c2ccccc2)c2c(n1)C1CCN2CC1` [Compound 43, 1-(5,8-ethano-4-phenyl-5,6,7,8-tetrahydropyrido[3,2-d]pyrimidin-2-yl)-N^3-(4-(4-(pyrrolidin-1-yl)piperidinyl)-3-fluorophenyl)-1H-1,2,4-triazole-3,5-diamine] yielded a pIC50 (Table 9, formula (VII)) greater than 6.00.

With `Cc1cccc(-c2nnc(-n3nc(Nc4ccc(N5CCN(CC6CC6)[C@@H](C)C5)nc4)nc3N)c3c2C2CCC3CC2)c1` [Compound 23, (3S)-1-(4-(3-methylphenyl)-5,8-ethano-5,6,7,8-tetrahydrophthalazine-1-yl)-N^3-(6-(4-(cyclopropylmethyl)-3-methylpiperazin-1-yl)pyridin-3-yl)-1H-1,2,4-triazole-3,5-diamine] the pIC50 (Table 7, formula (V)) was 5.00 to 6.00.

`N#Cc1cccc(-c2nnc(-n3nc(Nc4ccc(N5CCC(N6CCCC6)CC5)c(F)c4)nc3N)c3c2C2CCC3CC2)c1` [Compound 16, 1-(4-(3-cyanophenyl)-5,8-ethano-5,6,7,8-tetrahydrophthalazine-1-yl)-N^3-(4-(4-(pyrrolidin-1-yl)piperidinyl)-3-fluorophenyl)-1H-1,2,4-triazole-3,5-diamine] was tested, and the pIC50 (Table 5, formula (IVa)) was greater than 6.00.

Molecule `Cc1cc(F)ccc1-c1nnc(-n2nc(Nc3ccc4c(c3)CCC(N3CCCC3)CC4)nc2N)c2c1C1CCC2CC1` (centres unmarked) [Compound 33, 1-(4-(4-fluoro-2-methylphenyl)-5,8-ethano-5,6,7,8-tetrahydrophthalazine-1-yl)-N^3-(7-(pyrrolidin-1-yl)-6,7,8,9-tetrahydro-5H-benzo[7]annulene-2-yl)-1H-1,2,4-triazole-3,5-diamine] has a pIC50 (Table 8, formula (VI)) greater than 6.00.

For `Nc1nc(Nc2cnc3c(c2)CC(N)CC3)nn1-c1cc(-c2ccccc2)c2c(n1)C1CCN2CC1` (centres unmarked) [Compound 1, 1-(1,4-ethano-8-phenyl-1,2,3,4-tetrahydro-1,5-naphthyridin-6-yl)-N^3-(6-amino-5,6,7,8-tetrahydroquinoline-3-yl)-1H-1,2,4-triazole-3,5-diamine], the pIC50 (Table 1, formula (Ia)) was greater than 6.00.

Molecule `Nc1nc(Nc2ccc3c(c2)CCC(N2CCCC2)CC3)nn1-c1nnc(-c2ccccc2Cl)c2c1C1CCC2CC1` (centres unmarked) [Compound 29, 1-(4-(2-chlorophenyl)-5,8-ethano-5,6,7,8-tetrahydrophthalazine-1-yl)-N^3-(7-(pyrrolidin-1-yl)-6,7,8,9-tetrahydro-5H-benzo[7]annulene-2-yl)-1H-1,2,4-triazole-3,5-diamine] has a pIC50 (Table 8, formula (VI)) greater than 6.00.
